According to PubChem BioAssay (NCI):
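1) Cells in 96-well plates. 2) Compound, 48 h, 5 concentrations. 3) Linear interpolation between surrounding doses. 4) Unreached endpoint = highest concentration. TGI: concentration producing complete growth inhibition.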

Key:
Experiment in all cases: inhibition of tumour cell growth, NCI panel, 48 h
786-0 renal = test system: 786-0 renal
A498 renal = test system: A498 renal
A549 NSCLC = test system: A549 NSCLC
ACHN renal = test system: ACHN renal
CAKI-1 renal = test system: CAKI-1 renal
CCRF-CEM leukemia = test system: CCRF-CEM leukemia
COLO 205 colon = test system: COLO 205 colon
DLD-1 colon = test system: DLD-1 colon
DMS 114 small cell lung = test system: DMS 114 small cell lung
DMS 273 small cell lung = test system: DMS 273 small cell lung
EKVX NSCLC = test system: EKVX NSCLC
HCC-2998 colon = test system: HCC-2998 colon
HCT-116 colon = test system: HCT-116 colon
HCT-15 colon = test system: HCT-15 colon
HL-60(TB) leukemia = test system: HL-60(TB) leukemia
HOP-18 NSCLC = test system: HOP-18 NSCLC
HOP-62 NSCLC = test system: HOP-62 NSCLC
HOP-92 NSCLC = test system: HOP-92 NSCLC
HT29 colon = test system: HT29 colon
IGROV1 ovarian = test system: IGROV1 ovarian
K-562 leukemia = test system: K-562 leukemia
KM12 colon = test system: KM12 colon
KM20L2 colon = test system: KM20L2 colon
LXFL 529 NSCLC = test system: LXFL 529 NSCLC
M14 melanoma = test system: M14 melanoma
M19-MEL melanoma = test system: M19-MEL melanoma
MALME-3M melanoma = test system: MALME-3M melanoma
MOLT-4 leukemia = test system: MOLT-4 leukemia
NCI-H226 lung = test system: NCI-H226 lung
NCI-H23 lung = test system: NCI-H23 lung
NCI-H460 lung = test system: NCI-H460 lung
NCI-H522 lung = test system: NCI-H522 lung
OVCAR-3 ovarian = test system: OVCAR-3 ovarian
OVCAR-4 ovarian = test system: OVCAR-4 ovarian
OVCAR-5 ovarian = test system: OVCAR-5 ovarian
OVCAR-8 ovarian = test system: OVCAR-8 ovarian
RPMI-8226 leukemia = test system: RPMI-8226 leukemia
RXF-631 renal = test system: RXF-631 renal
SF-268 CNS = test system: SF-268 CNS
SF-295 CNS = test system: SF-295 CNS
SF-539 CNS = test system: SF-539 CNS
SK-MEL-2 melanoma = test system: SK-MEL-2 melanoma
SK-MEL-28 melanoma = test system: SK-MEL-28 melanoma
SK-MEL-5 melanoma = test system: SK-MEL-5 melanoma
SK-OV-3 ovarian = test system: SK-OV-3 ovarian
SN12C renal = test system: SN12C renal
SNB-19 CNS = test system: SNB-19 CNS
SNB-75 CNS = test system: SNB-75 CNS
SNB-78 CNS = test system: SNB-78 CNS
SR leukemia = test system: SR leukemia
SW-620 colon = test system: SW-620 colon
TK-10 renal = test system: TK-10 renal
U251 CNS = test system: U251 CNS
UACC-257 melanoma = test system: UACC-257 melanoma
UACC-62 melanoma = test system: UACC-62 melanoma
UO-31 renal = test system: UO-31 renal

Measured: TGI

Cc1cc(N(CCC#N)CCC#N)ccc1/C=C1\N=C(c2cc([N+](=O)[O-])ccc2Cl)N(c2cccc(Cl)c2)C1=O
> 100 µM: all assays above
